Legend:
Pneumocystis carinii = Pneumocystis carinii pneumonia in immunosuppressed rats, elimination of cysts; type: in vivo, Sprague-Dawley rats; details: I.P. twice daily for four days, lungs read by microscopic analysis of stained slides
Method: In a representative study, the effectiveness of Compound A-2a was determined. Sprague-Dawley rats (weighing approximately 250 grams) were immuno-suppressed with dexasone in the drinking water (2.0 mg/L) and maintained on a low protein diet for five weeds to induce the development of pneumocystis pneumonia from a latent infection. […] Six rats (weighing approximately 150 grams) were injected twice daily for four days intraperitoneally (I.P.) with Compound A-2a in 0.25 ml of vehicle (distilled water). A vehicle control was also carried out. All animals continued to receive dexasone in the drinking water and low protein diet during the treatment period. At the completion of the treatment, all animals were sacrificed, the lungs were removed and processed, and the extent of disease determined by microscopic analysis of stained slides.
In a similar experiment, the animals were sacrificed, the lungs removed and processed, and the extent of disease determined by microscopic analysis of stained slides.

C. albicans = assay: Minimum fungicidal concentration, microbroth dilution assay in YNBD; type: cell-based
Method: (§1) The compounds of the present invention are active against many fungi and particularly against Candida species. […] In carrying out the assay, Compound A-2a and A-3a were solubilized in 10% dimethyl sulfoxide (DMSO) and diluted to 2560 μg/ml. The compounds were then diluted to 256 μg/ml in YNBD. […] of the suspension was dispensed to the top row of a 96-well plate (each well containing 0.15 ml of YNDB) resulting in a drug concentration of 128 μg/ml. Two-fold dilutions were then made from the top row to obtain final drug concentrations ranging from 128 to 0.06 μg/ml. The yeast cultures, maintained on Sabouraud dextrose agar were transferred to YM broth (Difco) and incubated overnight at 35° C. with shaking (250 rpm). […] The microplates were incubated at 35° C. for 24 hours. The minimum inhibitory concentrations (MICs) were recorded as the lowest concentrations of drug showing no visible growth. After recording the MIC, the plates were shaken to resuspend the cells. Thereafter, […] samples from the wells in the 96-well microplate were transferred to a single well tray containing Sabouraud dextrose agar. The inoculated trays were incubated 24 hours at 28° C. and then read. […]

C. parapsilosis = assay: as above; type: cell-based; details: C. parapsilosis MY 1010
Method: as §1

C. tropicalis = assay: as above; type: cell-based; details: C. tropicalis MY 1012
Method: as §1

## 1-[N2-(10,12-dimethyl-1-oxotetradecyl)-ornithine]-4-[3,4-dihydroxy-4'-O-pho sphoryl-homotyrosine]-5-[3-hydroxyglutamine] echinocandin B [Compound A-3a]
Pneumocystis carinii
  ED90 for eliminating P. carinii cysts: approximately 2.5 mg/kg
C. albicans; C. albicans MY 1028
  Minimum Fungicidal Concentration: 4 µg/mL
C. albicans; C. albicans MY 1055
  Minimum Fungicidal Concentration: 2 µg/mL
C. albicans; C. albicans MY 1208
  Minimum Fungicidal Concentration: 4 µg/mL
C. parapsilosis
  Minimum Fungicidal Concentration: > 128 µg/mL
C. tropicalis
  Minimum Fungicidal Concentration: 1 µg/mL

## 1-[4-hydroxy-N2-(10,12-dimethyl-1-oxotetradecyl)-ornithine]-4-[3-hydroxy-4' -O-phosphoryl-homotyrosine]-5-[3-hydroxyglutamine]echinocandin B [Compound A-2a]
Pneumocystis carinii
  ED90 for eliminating P. carinii cysts: approximately 2 mg/kg
C. albicans; C. albicans MY 1028
  Minimum Fungicidal Concentration: 1 µg/mL
C. albicans; C. albicans MY 1055
  Minimum Fungicidal Concentration: 1 µg/mL
C. albicans; C. albicans MY 1208
  Minimum Fungicidal Concentration: 1 µg/mL
C. parapsilosis
  Minimum Fungicidal Concentration: 16 µg/mL
C. tropicalis
  Minimum Fungicidal Concentration: 0.5 µg/mL
